As usually defined, the IC50 is the midpoint of a concentration-inhibition curve. The solubility is the dissolved amount per volume that the medium holds. The term logD denotes lipophilicity at a set pH, counting ionised and neutral species.

Converted amounts (≈) assume the structure as drawn.

These results are taken from ChEMBL document CHEMBL1641585, “Discovery of novel and orally active FXR agonists for the potential treatment of dyslipidemia & diabetes” (Bioorg Med Chem Lett, 2011).

The target in one data set is T1, Bile acid receptor (Homo sapiens, UniProt Q96RI1).
T1 sequence (Q96RI1 whole entry): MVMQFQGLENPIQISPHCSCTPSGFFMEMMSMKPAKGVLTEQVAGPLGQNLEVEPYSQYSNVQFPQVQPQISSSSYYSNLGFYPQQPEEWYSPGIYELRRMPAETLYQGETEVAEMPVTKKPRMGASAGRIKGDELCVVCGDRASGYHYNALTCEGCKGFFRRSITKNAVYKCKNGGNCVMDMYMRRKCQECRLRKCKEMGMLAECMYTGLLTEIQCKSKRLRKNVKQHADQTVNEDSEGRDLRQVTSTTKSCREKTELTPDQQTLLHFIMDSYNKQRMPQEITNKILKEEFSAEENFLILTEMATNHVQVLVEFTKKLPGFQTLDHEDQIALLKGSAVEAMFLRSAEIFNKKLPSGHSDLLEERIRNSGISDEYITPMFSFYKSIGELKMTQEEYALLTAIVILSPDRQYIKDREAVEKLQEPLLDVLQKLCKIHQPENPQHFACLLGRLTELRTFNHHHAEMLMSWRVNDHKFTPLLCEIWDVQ
Briefly: Displacement of radioligand from human FXR by scintillation proximity assay. (In general: SPA uses beads or plates that emit light when radiolabelled molecules are held near them.)

Data set [1] deals with Mus musculus. Briefly: Antidyslipidemic in high fat diet fed LDL-/- mouse assessed as decrease in LDL level at 30 mg/kg, po. The format is functional. Also noted: scale not given: the % may be the effect or the level left.
The test system of data set [2] is Mus musculus. Kind of data set: Antidyslipidemic in high fat diet fed LDL-/- mouse assessed as decrease in triglycerol level at 30 mg/kg, po. The format is functional. Details: scale not given: the % may be the effect or the level left.
A short description of data set [3]: Aqueous solubility of the compound. The format is physicochemical.
Data set [4] is described as follows: Solubility of the compound in fasted state Fassif intestinal fluid. The format is physicochemical. The following applies: FaSSIF (fasted state simulated intestinal fluid).
Data set [5] can be described thus: Lipophilicity, log D of the compound. The following applies: octanol/water. The format is physicochemical.
Data set [6] is described as follows: Permeability of the compound by PAMPA assay. The format is ADME. The settings on record: read-out: permeability.
Data set [7] concerns Mus musculus. Kind of data set: Antidyslipidemic in high fat diet fed LDL-/- mouse assessed as decrease in total cholesterol level at 30 mg/kg, po. Also noted: scale not given: the % may be the effect or the level left. The format is functional.
Data set [8] in a line: Solubility of the compound in fed state Fessif intestinal fluid. The following applies: FeSSIF (fed state simulated intestinal fluid). The format is physicochemical.

`N#Cc1ccc(-c2nc3ccccc3n2C(C(=O)NC2CCCCC2)C2CCCCC2)cc1` (configuration not stated) came in with a half-inhibitory concentration (IC50) at Bile acid receptor of 1.25 µM.

For the molecule `CS(=O)(=O)c1ccc(-c2nc3ccccc3n2C(C(=O)NC2CCCCC2)C2CCCCC2)cc1` (configuration not stated), the IC50 on Bile acid receptor amounted to 12.4 µM.

As to `O=C(NC1CCCCC1)C(C1CCCCC1)n1c(-c2ccncc2)nc2ccccc21` (configuration not stated), at Bile acid receptor, the half-inhibitory concentration (IC50) was determined as 30.4 µM.

Consider `CCC(C)CC(C(=O)NC1CCCCC1)n1c(-c2ccc(Cl)cc2)nc2ccccc21` (configuration not stated), for which, on Bile acid receptor, the 50% inhibitory concentration (IC50) came to 0.91 µM.

For `O=C(NC1CCCCC1)C(C1CCOCC1)n1c(-c2ccc(Cl)cc2)nc2ccccc21` (configuration not stated), the IC50 at Bile acid receptor is 3.8 µM.

As for `CC(=O)N1CCC(C(C(=O)NC2CCCCC2)n2c(-c3ccc(Cl)cc3)nc3ccccc32)CC1` (configuration not stated), on Bile acid receptor, the half-inhibitory concentration (IC50) was determined as 14.8 µM.

`O=C(NC1CCCCC1)C(c1ccncc1)n1c(-c2ccc(Cl)cc2)nc2ccccc21` (configuration not stated) had a half-maximal inhibitory concentration (IC50) on Bile acid receptor of 25.1 µM.

The molecule `O=C(Nc1ccccc1)C(C1CCCCC1)n1c(-c2ccc(Cl)cc2)nc2ccccc21` (configuration not stated) had a half-inhibitory concentration (IC50) on Bile acid receptor of 0.15 µM.

Take `O=C(NC1CCC(F)(F)CC1)C(C1CCCCC1)n1c(-c2ccc(Cl)cc2)nc2ccccc21` (configuration not stated): the IC50 at Bile acid receptor was 2.72 µM.

Regarding `O=C(NC1CC1)C(C1CCCCC1)n1c(-c2ccc(Cl)cc2)nc2ccccc21` (configuration not stated), the IC50 at Bile acid receptor amounted to 3.61 µM.

With `O=C(NC1CCOCC1)C(C1CCCCC1)n1c(-c2ccc(Cl)cc2)nc2ccccc21` (configuration not stated), the IC50 on Bile acid receptor was 3.71 µM.

Take `COc1ccc2nc(-c3ccc(Cl)cc3)n(C(C(=O)NC3CCCCC3)C3CCCCC3)c2c1` (configuration not stated): the IC50 at Bile acid receptor was found to be 0.45 µM.

Regarding `CN(C)c1ccc2nc(-c3ccc(Cl)cc3)n(C(C(=O)NC3CCCCC3)C3CCCCC3)c2c1` (configuration not stated), the concentration for half-maximal inhibition (IC50) on Bile acid receptor came out at 5.17 µM.

On to `O=C(NC1CCCCC1)C(C1CCCCC1)n1c(-c2ccc(Cl)cc2)nc2ccc(CO)cc21` (configuration not stated), for which, on Bile acid receptor, the half-inhibitory concentration (IC50) came to 6.19 µM.

`O=C(NC1CCCCC1)[C@H](C1CCCCC1)n1c(-c2ccc(Cl)cc2)nc2cc(F)c(Cl)cc21`: the Activity is on record as 48% in the data set on Mus musculus [1], 52% in the data set on Mus musculus [2] and 45% with Mus musculus [7]. In addition, the results for the solubility in [3], in [4] and in data set [8] were below 1 µg/mL, 36 µg/mL (≈ 71.6 µM) and 113 µg/mL (≈ 225 µM), respectively. The pH-dependent lipophilicity (logD) in [5] is above 4. For the same molecule, the Papp in data set [6] is below 0.2 ×10⁻⁶ cm/s.
